Source: US4073938A, “19,20-Bis-nor-prostenoic acids as hypolipemic compounds” (Istituto Biochimico Italiano di Loredana Lorenzini S.a.s., priority 1974, dated 1978)
Structures can show the parent of a compound that is named as a salt.

How the values were obtained:
ulcer induced by aspirin = experiment: Anti-ulcerous activity, ulcer from aspirin (9-keto sodium salt); format: in vivo, Female rats of the Wistar stock
Method: The anti-ulcerous activity of the compound in question is tested on an ulcer induced by aspirin and on an ulcer induced by phenyl butazone. In both models the mucous lesions are localized in the glandular section of the stomach.
Female rats of the Wistar stock weighing 150-175 g were selected. 24 hours before the start of the test the animals were made to fast, allowing water at will.
Each test group consists of 12 animals. The aspirin is administered orally in the form of a suspension (45 mg in ml of 0.5% carboxymethylcellulose for each animal). The application of the sodium salt in question takes place either intravenously (2 × 5 mg or 1 × 50 mg of substance/kg in 2 ml of 0.9% sodium chloride solution) or orally (2 × 10 mg or 2 × 100 mg of substance/kg in 2 ml of 0.5% carboxymethylcellulose suspension). The first dose is administered 10 minutes before application of the aspirin, and the second dose two and a half hours afterwards. […] The animals are killed 5 hours after application of the aspirin, the stomachs are prepared, and the number and size of the lesions is evaluated with a stereomicroscope.

[1] = system: ulcer induced by phenylbutazone; experiment: Anti-ulcerous activity, ulcer from phenylbutazone (9-keto sodium salt); format: in vivo, Female rats of the Wistar stock
Method: The anti-ulcerous activity of the compound in question is tested on an ulcer induced by aspirin and on an ulcer induced by phenyl butazone. In both models the mucous lesions are localized in the glandular section of the stomach. Female rats of the Wistar stock weighing 140-170 g are involved. 24 hours before the start of the test the rats are made to fast, while they are allowed water at will. Each test group consists of 12 animals. For the formation of the ulcer, 200 mg of phenylbutazone/kg in 2 ml of 0.5% gum arabic are administered to the animals orally. 10 minutes before administration of phenylbutazone, and 21/2 hours afterwards, substance in question is administered orally (in 0.5% gum arabic solution) or intravenously (in 0.9% sodium chloride solution) in variable doses (see table). The animals are killed 5 hours after administration of phenylbutazone, the stomachs are prepared and examined under a stereomicroscope, to evaluate the number and size of the lesions.

[2] = Triglyceridemia and cholesterolemia in rats given alcohol 10%; format: in vivo, Male Sprague-Dawley rats; details: 1 week endoperitoneal once daily (CPIB, BBA 200 mg/kg; C83 50 mg/kg); for Cholesterolemia: controls 91.5 ± 6.6, alcohol 81.0 ± 4.6; for Triglyceridemia: controls 97.8 ± 5.1, alcohol 169.0 ± 25.0
Method: | Treatment for 1 week CPIB - BBA - 200 mg/kg endoperitoneal; C83 | 50mg/kg endoperitoneal; only one daily administration. | Male Sprague-Dawley rats 150 gr. | Groups of 6 rats.

[3] = Deepness and rapidity test (untitled table 6); format: in vivo, Male Sprague-Dawley rats; details: 200 mg/kg endoperitoneal; for Rapidity ± E.S.: controls 3.4 ± 0.3; for Deepness (mm ± E.S.): controls 74.9 ± 6.2
Method: | Treatment with the dose of 200 mg/kg endoperitoneal, one or two hours | before sacrifice. Male Sprague-Dawley rats with an average weight of 150 | gr.

[4] = LD50 by mouth in the mouse; format: in vivo; details: in vivo, po
Method: a. LD50 by mouth in the mouse about 3000 mg/kg
25 gr of XVI are dissolved in 400 ml of water with NaOH 15% to pH 9, filtered and lyophilized : 24 gr of sodium salt of XVI as a white solid are obtained, humidity (K. Fisher) 2.08%, no U.V. absorption, equivalent weight found 301.7, I.R. bands at 3400, 1765, 1565, 1460, 1420, 1378 cm^-1.
After 20 hours at 20°, the solvent is evaporated in vacuo, the residue is dissolved in 1300 ml of water treated with 120 ml of acetic acid, extracted with chloroform. After solvent evaporation, 65.1 gr of the compound XVIII are obtained, as an oil, I.R. bands at 3420, 3100, 1710 cm^-1. 35 gr of the compound XVIII are dissolved in 600 ml of water with NaOH to pH 9. The solution is filtered and lyophilized: 35.5 gr of sodium salt of 9-hydroxy-19,20-bis-nor-prostanoic acid are obtained, as white solid, humidity (K.Fisher) 1.73%, no U.V. absorption, equivalent weight found 320, I.R. bands at 3400, 3300, 1565, 1460, 1390 cm^-1, LD50 by mouth in mice about 3000 mg/kg.

With CCCCCCC1=C(CCCCCCC(=O)O)C(=O)CC1 [9-keto-19,20-bis-nor-8(12)-prostenoic acid, sodium salt] the “Ulcer scale (x ± Sx)” value (ulcer induced by aspirin; i.v., 1 × 50 mg/kg, p<0.01) was 5.08 ± 2.38, the “Ulcer scale (x ± Sx)” value (ulcer induced by aspirin; i.v., 2 × 5 mg/kg) was 11.80 ± 5.1 and the “inhibition of ulcerating effect of aspirin (in words)” value (ulcer induced by aspirin; oral and intravenous) was “inhibits considerably the ulcerating effect of the aspirin in both oral doses, and in the higher doses in the case of intravenous application”. For the same compound, the “Ulcer scale (x ± Sx)” value (ulcer induced by aspirin; p.o., 2 × 10 mg/kg, controls 17.95 ± 2.98, p<0.05) was 9.25 ± 2.11, the “Ulcer scale (x ± Sx)” value (ulcer induced by aspirin; p.o., 2 × 100 mg/kg, controls 17.95 ± 2.98, p<0.01) was 5.83 ± 2.11 and the inhibition at 50 mg/kg ([1]; Rattus norvegicus, iv, 1 × 50 mg/kg) was 42.5%. For the same compound, the inhibition at 5 mg/kg ([1]; Rattus norvegicus, iv, 2 × 5 mg/kg) was 83.1%, the inhibition at 10 mg/kg ([1]; Rattus norvegicus, po, 2 × 10 mg/kg) was 54.9% and the inhibition at 100 mg/kg ([1]; Rattus norvegicus, po, 2 × 100 mg/kg) was 80.2%. For the same compound, the “Ulcer scale (x ± Sx)” value ([1]; i.v., 1 × 50 mg/kg, controls 11.17 ± 2.77) was 6.42 ± 3.41, the “Ulcer scale (x ± Sx)” value ([1]; i.v., 2 × 5 mg/kg, controls 11.17 ± 2.77, p<0.05) was 3.00 ± 0.92 and the “inhibition of ulcerating effect of phenylbutazone (in words)” value ([1]; orally) was “can inhibit the ulcerating effect of phenylbutazone depending on the doses (orally)”. For the same compound, the “Ulcer scale (x ± Sx)” value ([1]; p.o., 2 × 10 mg/kg, controls 9.25 ± 1.81, p<0.05) was 4.17 ± 0.91 and the “Ulcer scale (x ± Sx)” value ([1]; p.o., 2 × 100 mg/kg, controls 9.25 ± 1.81, p<0.01) was 1.83 ± 0.69.
For CC(=Cc1ccccc1)CC(=O)O [BBA, β-benzalbutyric acid], the Cholesterolemia [2] was 66.5 ± 1.6 and the Triglyceridemia [2] was 143.4 ± 17.8.
Compound CCOC(=O)C(C)(C)Oc1ccc(Cl)cc1 [CPIB, clofibrate] has a Cholesterolemia [2] of 59.7 ± 2.9 and a Triglyceridemia [2] of 151.2 ± 10.4.
With CC(=O)Oc1ccccc1C(=O)O [aspirin, reference compound] the “Rapidity ± E.S.” value ([3]; 1 hour before sacrifice) was 1.2 ± 0.1, the “Deepness (mm ± E.S.)” value ([3]; 1 hour before sacrifice) was 17.7 ± 2.4 mm and the “Rapidity ± E.S.” value ([3]; 2 hours before sacrifice) was 2.5 ± 0.2. The “Deepness (mm ± E.S.)” value ([3]; 2 hours before sacrifice) was 48.4 ± 4.4 mm.
Work on CCCCCCC12CCC(O)C1(CCCCCCC(=O)O)O2 (centres unmarked) [sodium salt of XVI, 9-hydroxy-8(12)-epoxy-19,20-bis-nor prostanoic acid] yielded an LD50 [4] of about 1500 mg/kg.
